Where a name gives a salt, the structure may show the parent alone. Read-outs that look alike come from different tables or passages of the source.
Columns and labels:
SARS-CoV-2 WA wild type = assay: Virus pre-incubation, plaque formation in TMPRSS cells; assay type: cell-based; details: Severe acute respiratory syndrome coronavirus 2, 2 h; 5 mM, 120 min incubation
SARS-CoV-2-WA1 strain = assay: Huh7 cellular infectivity assay with SARS-CoV-2 (high content bioimaging); assay type: cell-based; details: for efficacy in preventing SARS-CoV-2 infection: Huh-7 cells, normalized to infected and uninfected vehicle wells
Method: (§1) FIGS. 3A-D. Cysteamine efficacy in the Huh7 cellular infectivity assay with SARS-CoV-2-WA1 strain. Cells are infected at 0.2 MOI and are incubated for 48 hours to allow for the initial infection and propagation to surrounding cells. […] All concentrations of cysteamine (50, 20, 8, 3, 1.5 micromolar) tested were non-cytotoxic indicating an acceptable therapeutic index.
Experiments were conducted during development of embodiments herein using a fully developed high-content screening pipeline to screen approved drugs against SARS Cov-2, the causative agent of COVID-19. A high throughput screen of FDA-approved drugs was conducted to determine the efficacy in a SARS-CoV-2 infectivity assay. This high content bioimaging-based assay has proven to be highly robust and informative, and clearly differentiates between infected and uninfected cells (FIG. 2). This high-content screen identifies individual agents effective in reducing viral infectivity or replication by imaging individual SARS Cov-2 infected cells. A screen of 1,200 compounds was conducted through the validated assay platform. Remdesivir, a viral replication inhibitor, was selected as a positive control, which results in 100% efficacy.
Cysteamine was evaluated for its antiviral effects at 5 doses with 9 replicates at each dose for a total of 45 independent experiments. Automated image analysis was performed to quantitate the number and percentage of infected cells and that was normalized to the infected and vehicle (DMSO) treated wells and the uninfected and vehicle treated wells representing 0-100% efficacy, as shown on the y-axis dose response plot for cysteamine anti-SARS-CoV-2 (FIG. 3).

epithelial fibroblasts = details: concentrations up to 10 μM; cited from earlier work
[1] = tested on: HTLV-IIIB strain of HIV-1; details: 100 μM; CEM cells; cited from earlier work
[2] = aqueous 0.1% and 0.5% (10 mM and 50 mM); cited from earlier work
[3] = aqueous 0.1% and 0.5%, topical; cited from earlier work
[4] = tested on: HIV-1 (4 primary isolates and 2 laboratory strains); details: cited from earlier work
Huh7 cells = assay: Cytotoxicity in the Huh7 infectivity assay; assay type: cell-based; details: 50, 20, 8, 3, 1.5 micromolar
Method: as §1

| Compound | inhibition at 5000 µM (SARS-CoV-2 WA wild type) [%] | efficacy in preventing SARS-CoV-2 infection (SARS-CoV-2-WA1 strain) [%] | effect on growth rate (epithelial fibroblasts) | inhibition of cytotoxicity [1] [%] | safety via the Draize test [2] | reduction of corneal cystine crystals [3] | tolerability in chronic use [3] | viral inhibition ([4]; 200 μM, lymphocytes) | viral inhibition ([4]; 100 microM, macrophages) | antiviral effect of combination ([4]; in conjunction with zidovudine or didanosine, without concomitant increases in toxicity) | viral infection relative to the negative control (SARS-CoV-2-WA1 strain; 8 micromolar, Huh7 cells, 0.2 MOI, 48 hours, syncytia present) | infected cells / nucleocapsid staining (SARS-CoV-2-WA1 strain; 20 micromolar, Huh7 cells, 0.2 MOI, 48 hours) | elimination of SARS-CoV-2 infection (SARS-CoV-2-WA1 strain; 50 micromolar, Huh7 cells, 0.2 MOI, 48 hours) [%] | EC50 (SARS-CoV-2-WA1 strain; Huh7 cells, 0.2 MOI, 48 hours, read-out: EC50 (concentration at 50% effect)) [µM] | cytotoxicity (Huh7 cells) |
| --- | --- | --- | --- | --- | --- | --- | --- | --- | --- | --- | --- | --- | --- | --- | --- |
| NCCS [cysteamine HCl] | 85 to 95 |  |  |  |  |  |  |  |  |  |  |  |  |  |  |
| CCC(CC)COC(=O)[C@H](C)N[P@](=O)(OC[C@H]1O[C@@](C#N)(c2ccc3c(N)ncnn23)[C@H](O)[C@@H]1O)Oc1ccccc1 [Remdesivir] |  | 100 |  |  |  |  |  |  |  |  |  |  |  |  |  |
| 2-aminoethanethiol [cysteamine] |  | ~100 | no effect on growth rate | 100 | safe | effective in reducing the cystine crystals | well-tolerated | More than 90% | More than 90% | additive antiviral effect | reduced viral infection relative to the negative control | small percentage of infected cells that have a diminished nucleocapsid staining | 100 | ~5 | non-cytotoxic |
